pEC50: −log10 of the molar value. “Also recorded” adds a separate entry of the source.
Key:
MYXV = assay: microbe, parasite or virus in culture; format: cell-based, myxoma virus
B16F10 cells = format: cell-based, murine; conditions: 24 hours
A9F1 cells = format: cell-based

SMILES	arginine concentration at which maximal viral replication occurs (MYXV)	pEC50 (MYXV; Myxoma virus, 24 h, read-out: EC50 of exogenous arginine for production of new infectious MYXV progeny)	rescue of MYXV replication by supplement (B16F10 cells)	rescue of cytostasis by supplement (A9F1 cells)
N=C(N)NCCC[C@H](N)C(=O)O [arginine]	at least 100 μM	~4.30	–	–
NC(=O)NCCC[C@H](N)C(=O)O [citrulline, L-Citrulline]	–	–	support myxoma virus replication; also recorded: could also rescue MYXV replication	could not be rescued

Source: patent US20240316130A1 (priority 2023, published 2024)
